# pKi: −log10 of the molar value.
# Assay: Binding affinity against PCP site of the NMDA Receptor using [3H]TCP radioligand
row,Structure (SMILES),pKi
1,CN1CC2c3c(N)cccc3C1C1CCCC21 (stereo not given),6.65
2,CN1CC2c3ccccc3C1C1CCCC21 (stereo not given),5.94
3,c1ccc2c(c1)C1CNC2C2CCCC12 (stereo not given),7.28
4,Nc1cccc2c1C1CNC2C2CCCC12 (stereo not given),7.85
5,C[C@]12N[C@H](Cc3ccccc31)c1ccccc12 [DIZOCILPINE],8.66
6,CN1CC2c3c(N)cccc3C1C1C=CCC21 (stereo not given),6.15
7,C[C@@H]1NC2c3cccc(N)c3C1C1CCCC21 (stereo in doubt; 13),5.92
8,C[C@H]1NC2c3cccc(N)c3C1C1CCCC21 (stereo not given in full),8.10
9,Oc1cccc(C2(N3CCCCC3)CCCCC2)c1,7.42
10,C[C@@H]1NC2c3cccc(N)c3C1C1CCCC21 (stereo in doubt; 12a),7.05

# Reference: ChEMBL document CHEMBL1128133, “Synthesis and binding affinity of 2,3,3a,4,9,9a-hexahydro-9,4-(iminomethano)-1H-benz[f]indenes. Ligands for the PCP site of the NMDA receptor” (Bioorg Med Chem Lett, 1995)
